Results: ChEMBL document CHEMBL1155423, “Unprecedented NES non-antagonistic inhibitor for nuclear export of Rev from Sida cordifolia” (Bioorg Med Chem Lett, 2010)

Assay: Inhibition of CRM1 interaction with HIV1 HA-tagged Rev in HeLa cells assessed as inhibition of Rev nuclear export by indirect fluorescent antibody technique
Format: cell-based

Row | IC50 [µM] | Compound
1 | > 30 | CCCCC/C=C\C=C\C(O)CCCCC(=O)O (configuration not stated)
2 | > 30 | CCCCCCCCCC(O)CCCCCCCC(=O)O (configuration not stated)
3 | > 30 | CCCCC/C=C\C=C\C(O)CCC(=O)O (configuration not stated)
4 | > 30 | CCCCC/C=C\C=C\C(C)O (configuration not stated)
5 | 15 | CCCCC/C=C\C=C\CCCCCCCCC(=O)O
6 | 20.8 | CC(O)CCCCCCCC(=O)O (configuration not stated)
7 | 7.2 | CCCCC/C=C\C=C\C(O)CCCCCCCC(=O)O (configuration not stated)
